Experimental data: patent US4228174A, “Clavulanic acid ethers” (priority 1975, dated 1980)
Structures can show the parent of a compound that is named as a salt. Values belong to the molecule of their own block, whether it stands above or below them.

Tests used:
[1] = target: T1, Escherichia coli JT4 β-lactamase (Escherichia coli, UniProt P62593); assay: β-lactamase inhibition I50; assay type: biochemical
T1 construct: host or cells: Escherichia coli JT4

[2] = target: Klebsiella aerogenes E70 β-lactamase; assay: β-lactamase inhibition I50; assay type: biochemical
[3] = target: T2, Staphylococcus aureus Russell β-lactamase (Staphylococcus aureus, UniProt P00807); assay: β-lactamase inhibition I50; assay type: biochemical
T2 construct: host or cells: Staphylococcus aureus Russell

[4] = target: Proteus mirabilis C889 β-lactamase; assay: β-lactamase inhibition I50; assay type: biochemical
[5] = Blood levels in mice after sub-cutaneous administration; assay type: in vivo; details: mouse, sc, 50 mg/kg, read-out: Blood level, mean result for 5 mice; for concentration at 0.5 h: 30 min; for concentration at 0.75 h: 45 min; for concentration at 1 h: 60 min; for concentration at 1.5 h: 90 min
Experimental: a. Blood levels in mice after sub-cutaneous administration of 50 mg/kg of a solution of sodium O-methylclavulanate

[6] = Blood levels in mice after oral administration; assay type: in vivo; details: mouse, 20 mg/kg, read-out: Blood level
Experimental: b. Blood levels in mice after oral administration of 20 mg/kg of sodium O-methylclavulanate

[7] = system: 3 strains of Straphylococcus aureus and 3 strains of R+ E. coli; assay: MIC of sodium O-methylclavulanate alone against each test organism; assay type: cell-based, Staphylococcus aureus; E. coli; details: read-out: MIC of sodium O-methylclavulanate against each test organism
Experimental: (§1) c. MIC values of ampicillin alone and together with sodium O-methylclavulanate against 3 strains of Straphylococcus aureus and 3 strains of R^+ E. coli
The MIC of sodium O-methylclavulanate against each test organism was in the range 20-40 μg/ml.

[8] = Toxicity in mice, sub-cutaneous administration (LD50); details: mouse, in vivo, sc
[9] = system: Staphylococcus aureus Russell; assay: Standard MIC test of ampicillin in the presence of compounds of the invention; assay type: cell-based; details: ampicillin alone, read-out: Concentration of ampicillin in the absence of synergist that did not inhibit growth
Experimental: b. When tested in standard MIC tests in combination with ampicillin the compounds of this invention are seen to enhance the effectiveness of the penicillin against various gram-positive and gram-negative organisms such as strains of Staphylococcus aureus Russell, Klebsiella aerogenes, Proteus mirabilis and Escherichia coli: for example the following MIC values against Staphylococcus aureus Russell were obtained for ampicillin in the presence of 1 μg/ml of certain compounds of the invention:
None of the synergists inhibited the growth of the test organism at 5 μg/ml.

[10] = system: E. coli JT 39; assay: MIC of ampicillin alone and together with sodium O-methylclavulanate; assay type: cell-based; details: Escherichia coli, JT39, 0 μg/ml of sodium O-methylclavulanate
Text: as §1

[11] = system: E. coli JT 68; assay: as above; assay type: cell-based; details: Escherichia coli, JT68, 0 μg/ml of sodium O-methylclavulanate
Text: as §1

[12] = system: E. coli JT 98; assay: as above; assay type: cell-based; details: Escherichia coli, JT98, 0 μg/ml of sodium O-methylclavulanate
Text: as §1

[13] = system: Staph. H; assay: as above; assay type: cell-based; details: Staphylococcus aureus, 0 μg/ml of sodium O-methylclavulanate
Text: as §1

[14] = system: Staph. M B9; assay: as above; assay type: cell-based; details: Staphylococcus aureus, 0 μg/ml of sodium O-methylclavulanate
Text: as §1

[15] = system: Staph. Russell; assay: as above; assay type: cell-based; details: Staphylococcus aureus, 0 μg/ml of sodium O-methylclavulanate
Text: as §1

[16] = Blood level in test mammals; assay type: in vivo; details: compared with an equivalent amount of the salt of clavulanic acid
[17] = system: E. coli JT 39 (R+) infection; assay: CD50 with sodium O-methylclavulanate or sodium clavulanate as synergist, dosing at 1 and 5 hours; assay type: in vivo; details: (×2) sub-cutaneous at 1 and 5 hours post infection
Experimental: d. […]
The test compounds were administered sub-cutaneously in freshly prepared buffered saline at 1 hour and 5 hours post intra peritoneal infection: […]

[18] = system: E. coli JT 39 (R+) infection; assay: CD50 of amoxycillin with a salt of O-ethylclavulanic acid or clavulanic acid, dosing at 1 and 5 hours; assay type: in vivo; details: (×2) mice, sub-cutaneous at 1 and 5 hours
Experimental: (§2) e. CD50 values of amoxycillin alone and together with a salt of O-ethylclavulanate acid against an E. coli JT 39 (R^+) infection. The test compounds were administered to mice sub-cutaneously in freshly prepared buffered saline (0.4 mg/ml) at 1 hour and 5 hours post inter peritoneal infection.

[19] = system: E. coli JT 39 (R+) infection; assay: CD50 of amoxycillin with a salt of O-ethylclavulanic acid or clavulanic acid, similar test dosing at 1, 3 and 5 hours; assay type: in vivo; details: (×3) dosing at 1, 3 and 5 hours post infection
Experimental: as §2
In a similar test dosing at 1, 3 and 5 hours post infection the following results were obtained: […]

[20] = target: T3, Escherichia coli JT410 β-lactamase (Escherichia coli, UniProt P00811); assay: β-lactamase inhibition I50; assay type: biochemical
T3 construct: host or cells: Escherichia coli JT410
T3 sequence (P00811 20-377): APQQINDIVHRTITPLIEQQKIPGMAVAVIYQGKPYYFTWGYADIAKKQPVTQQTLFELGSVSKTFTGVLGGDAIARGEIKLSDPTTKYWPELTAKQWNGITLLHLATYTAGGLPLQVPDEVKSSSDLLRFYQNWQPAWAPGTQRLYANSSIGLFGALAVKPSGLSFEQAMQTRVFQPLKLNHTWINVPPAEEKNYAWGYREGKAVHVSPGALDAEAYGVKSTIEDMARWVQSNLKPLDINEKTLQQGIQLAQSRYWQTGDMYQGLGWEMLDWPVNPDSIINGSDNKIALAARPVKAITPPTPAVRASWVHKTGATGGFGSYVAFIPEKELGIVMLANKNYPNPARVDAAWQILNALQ

[21] = target: P. moig, Cr. β-lactamase; assay: β-lactamase inhibition I50; assay type: biochemical
[22] = target: Pseudomonas aeruginosa β-lactamase; assay: β-lactamase inhibition I50; assay type: biochemical
[23] = system: Klebsiella I.112 infection; assay: CD50 of amoxycillin alone and with synergist, oral dosing at 1, 3 and 5 hours; assay type: in vivo; details: (×3) mice, oral at 1, 3 and 5 hours post infection
Experimental: f. CD50 values of amoxycillin alone and together with a salt of O-methylclavulanic acid or O-ethylclavulanic acid against a Klebsiella I.112 infection. The test compounds were administered orally to mice at 1, 3 and 5 hours post inter peritoneal infection.
[In these tests amoxycillin trihydrate equivalent to the stated weights of amoxycillin were used].

[24] = target: T4, Pseudomonas dalgleish β-lactamase (Pseudomonas aeruginosa, UniProt P16897); assay: β-lactamase inhibition I50; assay type: biochemical
T4 construct: host or cells: Pseudomonas aeruginosa Dalgleish
T4 sequence (P16897 18-288): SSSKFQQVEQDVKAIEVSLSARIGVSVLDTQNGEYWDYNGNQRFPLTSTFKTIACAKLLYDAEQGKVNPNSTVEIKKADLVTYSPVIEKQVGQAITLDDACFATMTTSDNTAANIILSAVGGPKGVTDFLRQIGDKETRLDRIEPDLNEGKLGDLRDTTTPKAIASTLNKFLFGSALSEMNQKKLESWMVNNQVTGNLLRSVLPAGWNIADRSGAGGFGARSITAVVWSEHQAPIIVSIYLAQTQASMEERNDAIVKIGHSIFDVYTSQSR

[25] = columns Synergist = Salt of clavulanic acid

T1 sequence (P62593 24-286 limits assumed): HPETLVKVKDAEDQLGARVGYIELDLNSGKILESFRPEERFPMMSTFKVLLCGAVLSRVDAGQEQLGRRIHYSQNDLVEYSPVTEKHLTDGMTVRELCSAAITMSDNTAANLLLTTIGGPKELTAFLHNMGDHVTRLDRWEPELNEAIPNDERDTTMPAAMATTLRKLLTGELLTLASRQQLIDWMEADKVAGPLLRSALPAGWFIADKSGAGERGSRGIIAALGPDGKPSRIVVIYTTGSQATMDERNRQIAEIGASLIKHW

SMILES: CCOC(=O)COC/C=C1\O[C@@H]2CC(=O)N2[C@H]1C(=O)OCc1ccccc1 [Example 6, Benzyl 9-O-ethoxycarbonylmethylclavulanate]
IC50 [1]: 373 nM
β-lactamase inhibition I50, Klebsiella aerogenes E70 [2]: 0.30 µg/mL
IC50 [3]: 320 nM
β-lactamase inhibition I50, Proteus mirabilis C889 [4]: 1.0 µg/mL

SMILES: COC/C=C1\O[C@@H]2CC(=O)N2[C@H]1C(=O)O [Example 3, Sodium 9-O-methylclavulanate]
IC50 [1]: 844 nM
β-lactamase inhibition I50, Klebsiella aerogenes E70 [2]: 0.07 µg/mL
IC50 [3]: 235 nM
β-lactamase inhibition I50, Proteus mirabilis C889 [4]: 0.01 µg/mL
concentration at 10 min [5]: 14500 ng/mL
concentration at 20 min [5]: 12800 ng/mL
concentration at 0.5 h [5]: 7900 ng/mL
concentration at 0.75 h [5]: 4100 ng/mL
concentration at 1 h [5]: 1400 ng/mL
concentration at 1.5 h [5]: 480 ng/mL
concentration at 0.25 h ([6]; 15 min): 5200 ng/mL
concentration at 0.5 h ([6]; 30 min): 3400 ng/mL
concentration at 0.75 h ([6]; 45 min): 2200 ng/mL
concentration at 1 h ([6]; 60 min): 1200 ng/mL
concentration at 1.5 h ([6]; 90 min): 500 ng/mL
MIC [7]: 20 to 40 µg/mL

SMILES: N#CCOC/C=C1\O[C@@H]2CC(=O)N2[C@H]1C(=O)O [Example 12, Sodium 9-O-cyanomethylclavulanate]
LD50 [8]: > 250 mg/kg

SMILES: O=C(O)[C@H]1/C(=C/CO)O[C@@H]2CC(=O)N21 [Sodium clavulanate, reference compound]
concentration at 10 min [5]: 9300 ng/mL
concentration at 20 min [5]: 8700 ng/mL
concentration at 0.5 h [5]: 2990 ng/mL
concentration at 0.75 h [5]: 1950 ng/mL
concentration at 1 h [5]: 500 ng/mL
concentration at 1.5 h [5]: 90 ng/mL

MIC [9]: > 250 µg/mL
MIC [10]: > 2560 µg/mL
MIC [11]: 2560 µg/mL
MIC [12]: 1280 µg/mL
MIC [13]: 640 µg/mL
MIC [14]: 640 µg/mL
MIC [15]: 80 µg/mL
SMILES: CC1(C)S[C@@H]2[C@H](NC(=O)[C@H](N)c3ccccc3)C(=O)N2[C@H]1C(=O)O [Ampicillin, ampicillin]

SMILES: COC/C=C1\O[C@@H]2CC(=O)N2[C@H]1C(=O)O [salt of O-methylclavulanic acid]
Blood level after administration, in words [16]: more prolonged blood level

SMILES: CC1(C)S[C@@H]2[C@H](NC(=O)[C@H](N)c3ccc(O)cc3)C(=O)N2[C@H]1C(=O)O [Sodium Amoxycillin]
CD50 of Sodium Amoxycillin alone ([17]; columns Synergist = Sodium clavulanate): > 1000 mg/kg
ED50 ([17]; Escherichia coli, sc, columns Synergist = Sodium O-methylclavulanate, read-out: CD50 of Sodium Amoxycillin alone): > 1000 mg/kg
CD50 of Sodium Amoxycillin alone [18, 25]: > 1000 mg/kg
ED50 ([18]; Escherichia coli, sc, columns Synergist = Salt of O-ethylclavulanic acid, read-out: CD50 of Sodium Amoxycillin alone): > 1000 mg/kg
CD50 of Sodium Amoxycillin alone [19, 25]: > 1000 mg/kg
ED50 ([19]; Escherichia coli, in Mus musculus, sc, columns Synergist = Salt of O-ethylclavulanic acid, read-out: CD50 of Sodium Amoxycillin alone): > 1000 mg/kg

SMILES: COC/C=C1\O[C@@H]2CC(=O)N2[C@H]1C(=O)OC [Example 1, Methyl 9--O--methylclavulanate]
IC50 [1]: 3960 nM
β-lactamase inhibition I50, Klebsiella aerogenes E70 [2]: 0.25 µg/mL
IC50 [3]: 2200 nM
IC50 [20]: 13600 nM
β-lactamase inhibition I50, P. moig, Cr. [21]: 0.68 µg/mL
β-lactamase inhibition I50, Pseudomonas aeruginosa [22]: 1.9 µg/mL

SMILES: CCOC(=O)COC/C=C1\O[C@@H]2CC(=O)N2[C@H]1C(=O)O [Example 7, Sodium 9-O-ethoxycarbonylmethylclavulanate]
IC50 [1]: 561 nM
β-lactamase inhibition I50, Klebsiella aerogenes E70 [2]: 0.034 µg/mL
IC50 [3]: 154 nM
β-lactamase inhibition I50, Proteus mirabilis C889 [4]: 0.025 µg/mL

SMILES: COC(=O)[C@H]1/C(=C/COCc2ccccc2)O[C@@H]2CC(=O)N21 [Example 4, Methyl 9-O-benzylclavulanate]
IC50 [1]: 2640 nM
β-lactamase inhibition I50, Klebsiella aerogenes E70 [2]: 0.8 µg/mL
IC50 [3]: 16.5 nM

SMILES: CC1(C)S[C@@H]2[C@H](NC(=O)[C@H](N)c3ccc(O)cc3)C(=O)N2[C@H]1C(=O)O [Amoxycillin]
ED50 [23]: > 1000 mg/kg

SMILES: COC/C=C1\O[C@@H]2CC(=O)N2[C@H]1C(=O)OCc1ccccc1 [Example 2, Benzyl 9-O-methylclavulanate]
IC50 [1]: 330 nM
β-lactamase inhibition I50, Klebsiella aerogenes E70 [2]: 0.05 µg/mL
IC50 [3]: 165 nM
β-lactamase inhibition I50, Pseudomonas aeruginosa [22]: 1.4 µg/mL
β-lactamase inhibition I50, Proteus mirabilis C889 [4]: < 0.07 µg/mL
IC50 [24]: < 231 nM

SMILES: O=C(O)[C@H]1/C(=C/COCc2ccccc2)O[C@@H]2CC(=O)N21 [Example 5, Sodium 9-O-benzylclavulanate]
IC50 [1]: 346 nM
β-lactamase inhibition I50, Klebsiella aerogenes E70 [2]: 0.04 µg/mL
IC50 [3]: 17.3 nM
β-lactamase inhibition I50, Proteus mirabilis C889 [4]: 0.02 µg/mL
IC50 [24]: 27.7 nM
LD50 [8]: > 250 mg/kg
